Results as given in US10227357B2, “Compounds and methods for kinase modulation, and indications therefor” (Plexxikon Inc., priority 2012, dated 2019).

Experiments:
c-kit mutant D816V = molecular target: T1, c-kit mutant D816V (Homo sapiens, UniProt P10721, D816V/DEL694-753); experiment: c-Kit mutant D816V biochemical assay, AlphaScreen; conditions: c-kit D816V biochemical inhibitory activity; read-out: Biochemical activity (IC50 μM) Kit D816V
T1 construct: residues 551-934, kinase insertion domain residues 694-753 deleted; 6x-histidine (N); made in house; host or cells: E. coli Arctic Express (DE3) RIL (Stratagene)
Summary of the method: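 Purified His-tagged c-Kit D816V (E. coli-expressed) assayed in 25 mM HEPES pH 7.2 with Mg/Mn, 5% DMSO and 10 μM ATP, 30 min at room temperature, 8-point 1:3 dilutions. Phosphorylation detected by AlphaScreen with streptavidin donor and PY20 acceptor beads; IC50 from signal versus concentration.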

c-kit kinase = molecular target: T2, c-kit kinase (Homo sapiens, UniProt P10721); experiment: c-Kit biochemical assay, AlphaScreen, 10 μM ATP; conditions: c-kit biochemical inhibitory activity; read-out: Biochemical activity (IC50 μM) Kit
T2 construct: The c-kit (or kinase domain thereof) is an active kinase in AlphaScreen; poly-Histidine tag (in-house protein only) (cleaved yes); host or cells: E. coli BL21(DE3)RIL, co-expressed with PTP1B
Summary of the method: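 His-tagged c-Kit expressed in E. coli with co-expressed PTP1B (dephosphorylated), tag removed; 0.1 ng per reaction with biotinylated-peptide substrate in 50 mM HEPES pH 7.2, 5 mM MgCl2, 5 mM MnCl2, 5% DMSO, 10 μM ATP, 1 h at room temperature. Phosphorylation detected by AlphaScreen (streptavidin donor, PY20 acceptor beads); IC50 from 8-point 1:3 dilution series.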

T2 sequence (P10721 26-976): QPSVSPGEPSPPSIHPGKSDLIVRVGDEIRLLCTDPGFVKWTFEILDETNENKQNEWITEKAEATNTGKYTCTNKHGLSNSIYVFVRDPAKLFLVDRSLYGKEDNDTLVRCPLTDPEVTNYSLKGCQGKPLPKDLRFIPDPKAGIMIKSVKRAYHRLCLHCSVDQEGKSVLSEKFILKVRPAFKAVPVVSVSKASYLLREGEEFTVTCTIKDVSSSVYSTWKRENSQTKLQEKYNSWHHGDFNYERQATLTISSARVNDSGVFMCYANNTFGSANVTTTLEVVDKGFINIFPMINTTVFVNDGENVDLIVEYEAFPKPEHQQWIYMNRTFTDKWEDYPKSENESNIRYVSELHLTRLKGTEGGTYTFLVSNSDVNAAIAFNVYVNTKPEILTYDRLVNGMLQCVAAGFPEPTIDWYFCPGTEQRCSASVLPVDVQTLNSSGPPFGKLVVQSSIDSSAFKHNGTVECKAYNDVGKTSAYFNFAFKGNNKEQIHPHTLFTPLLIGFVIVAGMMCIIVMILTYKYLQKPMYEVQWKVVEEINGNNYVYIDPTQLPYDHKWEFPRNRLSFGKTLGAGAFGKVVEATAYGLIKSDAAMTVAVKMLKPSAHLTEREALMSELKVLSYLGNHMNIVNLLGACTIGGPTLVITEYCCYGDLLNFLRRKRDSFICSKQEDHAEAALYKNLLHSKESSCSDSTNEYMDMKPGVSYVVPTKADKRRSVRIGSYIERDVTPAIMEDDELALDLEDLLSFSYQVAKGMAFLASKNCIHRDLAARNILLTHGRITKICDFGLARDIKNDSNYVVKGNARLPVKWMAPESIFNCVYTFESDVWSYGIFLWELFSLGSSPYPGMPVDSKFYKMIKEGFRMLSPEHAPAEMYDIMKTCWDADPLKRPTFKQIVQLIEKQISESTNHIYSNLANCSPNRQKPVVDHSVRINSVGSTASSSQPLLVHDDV
T1 sequence (P10721 with tags, fused parts or gaps DEL694-753/D816V): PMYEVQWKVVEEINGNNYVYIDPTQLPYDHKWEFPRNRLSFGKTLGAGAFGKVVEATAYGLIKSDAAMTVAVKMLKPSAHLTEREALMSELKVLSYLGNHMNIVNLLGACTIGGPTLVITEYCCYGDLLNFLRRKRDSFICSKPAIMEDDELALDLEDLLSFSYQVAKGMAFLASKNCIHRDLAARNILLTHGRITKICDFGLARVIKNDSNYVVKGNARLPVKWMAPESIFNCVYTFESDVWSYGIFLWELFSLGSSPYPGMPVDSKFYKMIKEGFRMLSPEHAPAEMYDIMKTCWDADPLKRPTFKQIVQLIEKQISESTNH

COc1cc(-c2cc3ncnc(N4CCN(C(=O)N[C@@H](C)c5cccc(Cl)c5)C(C)(C)C4)c3s2)ccn1 [P-0556, N-[(1S)-1-(3-chlorophenyl)ethyl]-4-[6-(2-methoxy-4-pyridyl)thieno[3,2-d]pyrimidin-4-yl]-2,2-dimethyl-piperazine-1-carboxamide]
IC50 (c-kit mutant D816V): 0.0001 to 1 µM
IC50 (c-kit kinase): 1 to 10 µM

O=S(=O)(Nc1ccc(-c2cc3c(-c4ccc(NS(=O)(=O)C5CC5)cc4)ncnc3[nH]2)cc1)C1CC1 [P-0389, N-[4-[4-[4-(cyclopropylsulfonylamino)phenyl]-7H-pyrrolo[2,3-d]pyrimidin-6-yl]phenyl]cyclopropanesulfonamide]
IC50 (c-kit mutant D816V): 0.0001 to 1 µM
IC50 (c-kit kinase): 1 to 10 µM

Cn1cc(-c2cc3c(N4CCN(C(=O)Nc5ccc(F)cc5)CC4)ncnc3[nH]2)cn1 [P-0096, N-(4-fluorophenyl)-4-[6-(1-methylpyrazol-4-yl)-7H-pyrrolo[2,3-d]pyrimidin-4-yl]piperazine-1-carboxamide]
IC50 (c-kit mutant D816V): 0.0001 to 1 µM
IC50 (c-kit kinase): 0.0001 to 1 µM

O=S(=O)(Nc1ccc(-c2ncnc3[nH]c(C4=CCCC4)cc23)c(F)c1)c1ccc(F)cc1 [P-0321, N-[4-[6-(cyclopenten-1-yl)-7H-pyrrolo[2,3-d]pyrimidin-4-yl]-3-fluoro-phenyl]-4-fluoro-benzenesulfonamide]
IC50 (c-kit mutant D816V): 0.0001 to 1 µM
IC50 (c-kit kinase): 0.0001 to 1 µM

Cc1ccc(-c2cc3c(N4CCN(C(=O)N[C@@H](C)c5cccc(F)c5)C(C)(C)C4)ncnc3[nH]2)cn1 [P-0007, N-[(1S)-1-(3-fluorophenyl)ethyl]-2,2-dimethyl-4-[6-(6-methyl-3-pyridyl)-7H-pyrrolo[2,3-d]pyrimidin-4-yl]piperazine-1-carboxamide]
IC50 (c-kit mutant D816V): 0.0001 to 1 µM
IC50 (c-kit kinase): 10 to 200 µM

Cc1cc2c(-c3ccc(NS(=O)(=O)c4cc5ccccc5s4)cc3)ncnc2[nH]1 [P-0309, N-[4-(6-methyl-7H-pyrrolo[2,3-d]pyrimidin-4-yl)phenyl]benzothiophene-2-sulfonamide]
IC50 (c-kit mutant D816V): 1 to 10 µM
IC50 (c-kit kinase): 1 to 10 µM

C[C@H](NC(=O)N1CCN(c2ncnc3[nH]c(-c4ccc(F)cc4)cc23)CC1(C)C)c1cccc(OC(F)F)c1 [P-0006, N-[(1S)-1-[3-(difluoromethoxy)phenyl]ethyl]-4-[6-(4-fluorophenyl)-7H-pyrrolo[2,3-d]pyrimidin-4-yl]-2,2-dimethyl-piperazine-1-carboxamide]
IC50 (c-kit mutant D816V): 0.0001 to 1 µM
IC50 (c-kit kinase): 1 to 10 µM

Cc1nn(C)cc1-c1cc2ncnc(N3CCN(C(=O)NCc4ccc(F)cc4)[C@H](C)C3)c2s1 [P-0610, (2R)-4-[6-(1,3-dimethylpyrazol-4-yl)thieno[3,2-d]pyrimidin-4-yl]-N-[(4-fluorophenyl)methyl]-2-methyl-piperazine-1-carboxamide]
IC50 (c-kit mutant D816V): 0.0001 to 1 µM
IC50 (c-kit kinase): 1 to 10 µM

COc1cccc([C@@H](C)NC(=O)N2CCN(c3ncnc4cc(-c5cn(C)nc5C)sc34)C[C@H]2C)c1 [P-0608, (2R)-4-[6-(1,3-dimethylpyrazol-4-yl)thieno[3,2-d]pyrimidin-4-yl]-N-[(1R)-1-(3-methoxyphenyl)ethyl]-2-methyl-piperazine-1-carboxamide]
IC50 (c-kit mutant D816V): 0.0001 to 1 µM
IC50 (c-kit kinase): 10 to 200 µM

C[C@H](NC(=O)N1CCN(c2ncnc3[nH]c(-c4ccc(C#N)cc4)cc23)C[C@H]1C)c1ccc(F)cc1 [P-0690, (2R)-4-[6-(4-cyanophenyl)-7H-pyrrolo[2,3-d]pyrimidin-4-yl]-N-[(1S)-1-(4-fluorophenyl)ethyl]-2-methyl-piperazine-1-carboxamide]
IC50 (c-kit mutant D816V): 0.0001 to 1 µM
IC50 (c-kit kinase): 10 to 200 µM

C[C@H](NC(=O)N1CCN(c2ncnc3cc(-c4ccc(F)cc4)sc23)CC1(C)C)c1cccc(OC(F)F)c1 [P-0577, N-[(1S)-1-[3-(difluoromethoxy)phenyl]ethyl]-4-[6-(4-fluorophenyl)thieno[3,2-d]pyrimidin-4-yl]-2,2-dimethyl-piperazine-1-carboxamide]
IC50 (c-kit mutant D816V): 0.0001 to 1 µM
IC50 (c-kit kinase): 10 to 200 µM

Cc1nn(C)cc1-c1cc2c(N3CCN(C(=O)N[C@@H](C)c4ccc(Cl)cc4)C(C)(C)C3)ncnc2[nH]1 [P-0723, N-[(1S)-1-(4-chlorophenyl)ethyl]-4-[6-(1,3-dimethylpyrazol-4-yl)-7H-pyrrolo[2,3-d]pyrimidin-4-yl]-2,2-dimethyl-piperazine-1-carboxamide]
IC50 (c-kit mutant D816V): 0.0001 to 1 µM
IC50 (c-kit kinase): 0.0001 to 1 µM

O=C(Nc1ccc(OC(F)F)cc1)N1CCN(c2ncnc3[nH]c(-c4ccc(F)cc4)cc23)CC1 [P-0125, N-[4-(difluoromethoxy)phenyl]-4-[6-(4-fluorophenyl)-7H-pyrrolo[2,3-d]pyrimidin-4-yl]piperazine-1-carboxamide]
IC50 (c-kit mutant D816V): 1 to 10 µM
IC50 (c-kit kinase): 0.0001 to 1 µM

[2H]C([2H])([2H])S(=O)(=O)Nc1ccc(-c2ncnc3cc(OCCCN4CCCCC4)c(OC)cc23)c(F)c1 [P-0254, 1,1,1-trideuterio-N-[3-fluoro-4-[6-methoxy-7-[3-(1-piperidyl)propoxy]quinazolin-4-yl]phenyl]methanesulfonamide]
IC50 (c-kit mutant D816V): 0.0001 to 1 µM
IC50 (c-kit kinase): 1 to 10 µM

Cc1ccc(-c2cc3c(C4=CCC(NS(=O)(=O)c5ccc(OC(F)(F)F)cc5)CC4)ncnc3[nH]2)cn1 (centres unmarked) [P-0281, N-[4-[6-(6-methyl-3-pyridyl)-7H-pyrrolo[2,3-d]pyrimidin-4-yl]cyclohex-3-en-1-yl]-4-(trifluoromethoxy)benzenesulfonamide]
IC50 (c-kit mutant D816V): 0.0001 to 1 µM
IC50 (c-kit kinase): 10 to 200 µM

Cc1ncc(-c2cc3c(N4CCN(C(=O)Nc5ccc(OC(F)(F)F)cc5)CC4)ncnc3[nH]2)s1 [P-0080, 4-[6-(2-methylthiazol-5-yl)-7H-pyrrolo[2,3-d]pyrimidin-4-yl]-N-[4-(trifluoromethoxy)phenyl]piperazine-1-carboxamide]
IC50 (c-kit mutant D816V): 0.0001 to 1 µM
IC50 (c-kit kinase): 0.0001 to 1 µM

Cc1ccc(-c2cc3c(N4CCN(C(=O)N[C@@H](C)c5cccc(Cl)c5)C(C)(C)C4)ncnc3[nH]2)cn1 [P-0001, N-[(1S)-1-(3-chlorophenyl)ethyl]-2,2-dimethyl-4-[6-(6-methyl-3-pyridyl)-7H-pyrrolo[2,3-d]pyrimidin-4-yl]piperazine-1-carboxamide]
IC50 (c-kit mutant D816V): 0.0001 to 1 µM
IC50 (c-kit kinase): 1 to 10 µM

C#Cc1cc2c(N3CCN(C(=O)Nc4ccc(OCC)cc4)CC3)ncnc2[nH]1 [P-0089, N-(4-ethoxyphenyl)-4-(6-ethynyl-7H-pyrrolo[2,3-d]pyrimidin-4-yl)piperazine-1-carboxamide]
IC50 (c-kit mutant D816V): 10 to 200 µM
IC50 (c-kit kinase): 1 to 10 µM

Cn1cc(-c2cc3c(N4CCN(C(=O)Nc5ccc(OC(F)F)cc5)CC4)ncnc3[nH]2)cn1 [P-0091, N-[4-(difluoromethoxy)phenyl]-4-[6-(1-methylpyrazol-4-yl)-7H-pyrrolo[2,3-d]pyrimidin-4-yl]piperazine-1-carboxamide]
IC50 (c-kit mutant D816V): 0.0001 to 1 µM
IC50 (c-kit kinase): 0.0001 to 1 µM

O=C(Nc1cccc(Cl)c1)N1CCN(c2ncnc3[nH]ccc23)CC1 [P-0168, N-(3-chlorophenyl)-4-(7H-pyrrolo[2,3-d]pyrimidin-4-yl)piperazine-1-carboxamide]
IC50 (c-kit mutant D816V): 10 to 200 µM
IC50 (c-kit kinase): 10 to 200 µM

O=C(N1CC=C(c2cc3ncnc(-c4ccc(NS(=O)(=O)c5ccc(F)cc5)cc4)c3s2)CC1)N1CCOCC1 [P-0561, 4-fluoro-N-[4-[6-[1-(morpholine-4-carbonyl)-3,6-dihydro-2H-pyridin-4-yl]thieno[3,2-d]pyrimidin-4-yl]phenyl]benzenesulfonamide]
IC50 (c-kit mutant D816V): 0.0001 to 1 µM
IC50 (c-kit kinase): 0.0001 to 1 µM

COc1cccc([C@H](C)NC(=O)N2CCN(c3ncnc4cc(N5CCOCC5)sc34)CC2(C)C)c1 [P-0560, N-[(1S)-1-(3-methoxyphenyl)ethyl]-2,2-dimethyl-4-(6-morpholinothieno[3,2-d]pyrimidin-4-yl)piperazine-1-carboxamide]
IC50 (c-kit mutant D816V): 0.0001 to 1 µM
IC50 (c-kit kinase): 1 to 10 µM
